Each compound was assayed against T1, Xanthine dehydrogenase/oxidase (Bos taurus, UniProt P80457) (assay: Inhibition of bovine xanthine oxidase at 10 ug/ml by spectrophotometry). Details: cattle.
T1 sequence (P80457 whole entry): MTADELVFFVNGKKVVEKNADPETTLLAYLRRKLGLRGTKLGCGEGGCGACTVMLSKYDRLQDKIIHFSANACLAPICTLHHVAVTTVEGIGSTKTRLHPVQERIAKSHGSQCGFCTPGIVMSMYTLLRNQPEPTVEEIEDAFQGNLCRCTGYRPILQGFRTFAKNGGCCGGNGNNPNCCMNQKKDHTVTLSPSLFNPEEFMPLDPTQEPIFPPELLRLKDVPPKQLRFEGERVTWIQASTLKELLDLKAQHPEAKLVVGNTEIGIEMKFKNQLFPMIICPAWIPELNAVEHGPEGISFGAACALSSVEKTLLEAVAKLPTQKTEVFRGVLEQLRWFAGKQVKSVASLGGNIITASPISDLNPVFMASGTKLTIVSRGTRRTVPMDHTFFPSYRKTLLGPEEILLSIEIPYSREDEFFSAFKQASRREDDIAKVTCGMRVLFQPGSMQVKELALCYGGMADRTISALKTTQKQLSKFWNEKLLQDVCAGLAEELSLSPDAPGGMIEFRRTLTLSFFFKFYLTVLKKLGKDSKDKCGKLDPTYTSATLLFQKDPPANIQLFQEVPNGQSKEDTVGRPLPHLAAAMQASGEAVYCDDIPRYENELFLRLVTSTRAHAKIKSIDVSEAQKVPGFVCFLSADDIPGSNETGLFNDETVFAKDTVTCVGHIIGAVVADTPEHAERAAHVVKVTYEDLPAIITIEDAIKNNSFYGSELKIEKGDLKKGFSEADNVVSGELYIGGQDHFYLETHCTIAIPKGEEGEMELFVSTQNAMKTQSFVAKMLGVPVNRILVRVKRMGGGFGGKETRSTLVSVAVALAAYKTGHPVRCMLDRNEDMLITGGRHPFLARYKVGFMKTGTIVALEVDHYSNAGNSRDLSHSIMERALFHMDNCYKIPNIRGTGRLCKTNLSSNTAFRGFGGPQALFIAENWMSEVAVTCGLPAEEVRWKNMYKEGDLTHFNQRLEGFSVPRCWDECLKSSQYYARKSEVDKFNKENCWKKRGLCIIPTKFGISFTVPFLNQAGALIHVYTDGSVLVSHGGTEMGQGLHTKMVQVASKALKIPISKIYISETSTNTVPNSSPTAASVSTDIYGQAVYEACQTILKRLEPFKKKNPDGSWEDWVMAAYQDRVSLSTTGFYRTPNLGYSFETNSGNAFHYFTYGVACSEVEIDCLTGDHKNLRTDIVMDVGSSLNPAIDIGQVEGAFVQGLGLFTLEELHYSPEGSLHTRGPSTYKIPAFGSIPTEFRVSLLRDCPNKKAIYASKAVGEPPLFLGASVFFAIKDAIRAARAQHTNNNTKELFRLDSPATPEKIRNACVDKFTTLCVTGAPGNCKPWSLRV

inhibition at 10 µg/mL | Structure (SMILES)
< 50% | Cc1ccc(COc2ccc(-c3cc(C(=O)O)no3)cc2[N+](=O)[O-])cc1
< 50% | Cc1ccc(COc2ccc(-c3cc(C(=O)O)no3)cc2C#N)cc1

Each compound was assayed against T1, Xanthine dehydrogenase/oxidase (assay: Inhibition of bovine xanthine oxidase by spectrophotometry). Details: not given.

IC50 | Structure (SMILES)
0.59 µM | N#Cc1cc(-c2cc(C(=O)O)no2)ccc1OCc1ccccc1
2.83 µM | O=C(O)c1cc(-c2ccc(OCc3ccc(Cl)cc3)c([N+](=O)[O-])c2)on1
1 µM | CC(C)COc1ccc(-c2cc(C(=O)O)no2)cc1[N+](=O)[O-]
0.97 µM | O=C(O)c1cc(-c2ccc(OCc3ccccc3)c([N+](=O)[O-])c2)on1

Further lines, the compound ahead of its results:

Structure (SMILES) | IC50
CC(C)(C)c1ccc(COc2ccc(-c3cc(C(=O)O)[n-][o+]3)cc2[N+](=O)[O-])cc1 | 12.8 µM
CC(C)(C)c1ccc(COc2ccc(-c3cc(C(=O)O)no3)cc2C#N)cc1 | 1.01 µM
N#Cc1cc(-c2cc(C(=O)O)no2)ccc1OCc1ccc(Cl)cc1 | 0.63 µM

— ChEMBL document CHEMBL1165871, “Synthesis of some 5-phenylisoxazole-3-carboxylic acid derivatives as potent xanthine oxidase inhibitors” (Eur J Med Chem, 2010)
